{
  "source": "paper PMC5931107",
  "about": "“Clinical pharmacodynamic/exposure characterisation of the multikinase inhibitor ilorasertib (ABT-348) in a phase 1 dose-escalation trial” (British Journal of Cancer, 2018)",
  "key": {"PDGFR-α": {"system": "PDGFR-α", "design": "method as in PMID 22935731", "conditions": "1 mM ATP; read-out: Biochemical IC50 (95% confidence limits); cited from earlier work"}, "Aurora C": {"system": "Aurora C", "design": "method as in PMID 22935731", "conditions": "1 mM ATP; read-out: Biochemical IC50 (95% confidence limits); cited from earlier work"}, "Aurora B": {"system": "Aurora B", "design": "method as in PMID 22935731", "conditions": "Aurora B autophosphorylation, nocodazole-arrested HeLa cells; read-out: Cellular PD marker IC50 (95% confidence limits); cited from earlier work"}, "c-KIT": {"system": "c-KIT", "design": "method as in PMID 22935731", "conditions": "1 mM ATP; read-out: Biochemical IC50 (95% confidence limits); cited from earlier work"}, "Aurora A": {"system": "Aurora A", "design": "method as in PMID 22935731", "conditions": "Aurora A autophosphorylation, nocodazole-arrested HeLa cells; read-out: Cellular PD marker IC50 (95% confidence limits); cited from earlier work"}, "[1]": {"test": "Plasma pharmacokinetics, Arm I (oral QD), phase 1 trial", "format": "in vivo, human", "conditions": "for AUC(0-t): AUCt", "method": "Pharmacokinetics of ilorasertib were evaluated in the dose-escalation cohort on blood samples that were collected on cycle 1 days 1 and 15. Parameters determined: Cmax, time to Cmax (Tmax), terminal phase elimination half-life (t1/2), clearance, apparent oral clearance (CL/F), and area under the plasma concentration-time curve from time 0 to time of last measurable concentration (AUCt) and from time 0 to infinity (AUC∞). For Arm I, blood samples were collected prior to dosing and at 0.5, 1, 2, 3, 4, 6, 8, 10 or 12, and 24 h after dosing on cycle 1 days 1 and 15; of note, for institutions not able to collect the 10- or 12-h post-dose sample, the 24-h sample was replaced with 22-h and 28-h post-dose samples. In Arm II, for the first dose, blood samples were collected pre-dose and at 1, 2, 3, and 4 h post-dose on cycle 1 days 1 and 15; for the second dose, samples were collected pre-dose and at 1, 2, 3, 4, 18, and 24 h after second dose on cycle 1 days 1 and 15. In Arm III, blood samples were collected prior to infusion, at 1 h 55 min (just before end of infusion), and at 0.5, 1, 2, 4, 6, 8, 10, and 24 h after end of infusion on cycle 1 days 1 and 15; here also, for institutions not able to collect the 8-h or 10-h after-end-of-infusion samples, the 24-h sample was replaced with 22-h and 28-h post-dose samples. The liquid chromatography (LC)-mass spectrometry (MS)/MS method was developed and validated in the Bioanalysis Department of AbbVie. Fifty microliter of human plasma (K2EDTA as anticoagulant) was fortified with 300 μL of deuterium-stable labelled internal standard and mixed well. A HybridSPE precipitation plate (50 mg/96 wells, Supelco Analytical, Munich, Germany) was used to directly load and elute (under slight vacuum) the fortified samples into a clean collection plate. Samples were dried before reconstitution with 100 μL of 20/80 (v/v) acetonitrile/water, and injected for LC-MS/MS analysis. A Halo C8 (Wilmington, DE, USA; 2.7 μm, 2.1 × 30 mm) was used on an Agilent 1290 Infinity UPLC pump (Agilent Technologies, Santa Clara, CA) to carry out the separation. An isocratic condition with 25/75/0.1 (v/v/v) acetonitrile/water/98% formic acid was used as the mobile phase. The flow rate was set to be 0.6 mL/min. An MPS 3 C ([…] Ruhr, Germany) autosampler was used to introduce samples onto the UPLC system. An API 4000 mass spectrometer (Applied Biosystems, Foster City, CA) was used in the multiple reactions monitoring mode for the detection and quantitation of analyte. Descriptive statistics were used for demographic variables. The numbers and percentages of patients with treatment-emergent AEs (TEAEs) were tabulated using the Medical Dictionary for Regulatory Activities version 16.0 system organ class and preferred term, and further classified according to CTCAE version 4.0 criteria. The safety data set included all patients who received one or more doses of ilorasertib. The pharmacokinetic data set included all patients who received one or more doses of ilorasertib and had one or more pharmacokinetic samples. Values for pharmacokinetic parameters were determined using non-compartmental methods, with data analysed separately for each arm. A repeated measures analysis was performed for Tmax and dose-normalised Cmax, AUCt, and AUC∞. The model included random effects for patient and fixed effects for dose level, day, and the interaction of dose level and day. To assess effects of exposure on pharmacodynamic biomarkers, Cmax was employed as the directly measured marker of exposure for the rapid changes in DBP and PlGF pre-steady-state, while AUC∞ reflected exposure variability at the time of post-multiple-dose skin biopsy. Descriptive statistics were used to summarise ECOG performance status. The efficacy data set included all patients who received one or more doses of ilorasertib."}, "[2]": {"design": "method as in PMID 25933833", "conditions": "doses above 80 mg PO; data from haematologic malignancies study i.v. arm; cited from earlier work"}, "FLT-3": {"system": "FLT-3", "design": "method as in PMID 22935731", "conditions": "FLT-3 constitutively phosphorylated in SEM cells, 60 min exposure; read-out: Cellular PD marker IC50 (95% confidence limits); cited from earlier work"}},
  "note": "Marks after values point to notes of the source that are not given here.",
  "data": [
    {"smiles": "Nc1ncc(-c2cnn(CCO)c2)c2scc(-c3ccc(NC(=O)Nc4cccc(F)c4)cc3)c12", "note": "[ilorasertib, Ilorasertib]", "values": [
      {"measurement": "IC50", "setting": "PDGFR-α", "value": 11, "unit": "nM"},
      {"measurement": "IC50", "setting": "Aurora C", "value": 1, "unit": "nM"},
      {"measurement": "IC50", "setting": "Aurora B", "value": "[…]"},
      {"measurement": "IC50", "setting": "c-KIT", "value": 20, "unit": "nM"},
      {"measurement": "IC50", "setting": "Aurora A", "value": "[…]"},
      {"measurement": "t1/2 (harmonic mean)", "setting": "[1]; Arm I PO QD all doses, day 1, N=21", "value": "12.2 ± 6.9^d h"},
      {"measurement": "half-life", "setting": "[1]; human, in vivo, Mean t1/2", "value": "~12", "unit": "h"},
      {"measurement": "Tmax", "setting": "[1]; human, in vivo, Time of peak plasma concentration", "value": "~4", "unit": "h"},
      {"measurement": "Dose proportionality of exposure (Cmax and AUC)", "setting": "[1]; human, in vivo, iv", "value": "approximately dose proportional"},
      {"measurement": "t1/2 (harmonic mean)", "setting": "[1]; human, in vivo, po, 10 mg", "value": "[…]"},
      {"measurement": "half-life", "setting": "[1]; human, in vivo, po, 10 mg, t1/2 (harmonic mean)", "value": "11.7 ± 1.4", "unit": "h"},
      {"measurement": "AUCt", "setting": "[1]; human, in vivo, po, 20 mg", "value": "1.76 (3.23, 0.29) μg•h/mL"},
      {"measurement": "AUC∞", "setting": "[1]; human, in vivo, po, 20 mg", "value": "1.46 (2.41, 0.51) μg•h/mL"},
      {"measurement": "Cmax", "setting": "[1]; human, in vivo, po, 20 mg", "value": "0.08 (0.14, 0.02) μg/mL"},
      {"measurement": "Tmax", "setting": "[1]; human, in vivo, po, 20 mg", "value": "5.0 (4.0, 6.0) h"},
      {"measurement": "AUC(0-t)", "setting": "[1]; human, in vivo, po, 20 mg", "value": 1010, "unit": "ng·h/mL"},
      {"measurement": "AUC(0-inf)", "setting": "[1]; human, in vivo, po, 20 mg", "value": 2260, "unit": "ng·h/mL"},
      {"measurement": "Cmax", "setting": "[1]; human, in vivo, po, 20 mg, Cmax", "value": "[…]"},
      {"measurement": "Tmax", "setting": "[1]; human, in vivo, po, 20 mg, Tmax", "value": 5, "unit": "h"},
      {"measurement": "AUCt", "setting": "[1]; human, in vivo, po, 40 mg", "value": 1.15, "unit": "µg·h/mL"},
      {"measurement": "AUC∞/dose", "setting": "[1]; human, in vivo, po, 40 mg", "value": 41.0, "unit": "ng·h/mL/mg"},
      {"measurement": "CL/F", "setting": "[1]; human, in vivo, po, 40 mg", "value": 24.4, "unit": "L/h"},
      {"measurement": "AUC(0-t)", "setting": "[1]; human, in vivo, po, 40 mg", "value": 640, "unit": "ng·h/mL"},
      {"measurement": "AUC(0-inf)", "setting": "[1]; human, in vivo, po, 40 mg", "value": 1640, "unit": "ng·h/mL"},
      {"measurement": "Tmax", "setting": "[1]; human, in vivo, po, 40 mg, Tmax", "value": 8, "unit": "h"},
      {"measurement": "half-life", "setting": "[1]; human, in vivo, po, 40 mg, t1/2 (harmonic mean)", "value": 11.5, "unit": "h"},
      {"measurement": "AUCt", "setting": "[1]; human, in vivo, po, 80 mg", "value": "1.59 ± 1.04", "unit": "µg·h/mL"},
      {"measurement": "AUC∞", "setting": "[1]; human, in vivo, po, 80 mg", "value": "2.75 ± 2.15", "unit": "µg·h/mL"},
      {"measurement": "Cmax", "setting": "[1]; human, in vivo, po, 80 mg", "value": "[…]"},
      {"measurement": "t1/2 (harmonic mean)", "setting": "[1]; human, in vivo, po, 80 mg", "value": "16.8 ± 2.8", "unit": "h"},
      {"measurement": "AUC(0-t)", "setting": "[1]; human, in vivo, po, 80 mg", "value": "1900 ± 1100", "unit": "ng·h/mL"},
      {"measurement": "AUC(0-inf)", "setting": "[1]; human, in vivo, po, 80 mg", "value": "2820 ± 1540", "unit": "ng·h/mL"},
      {"measurement": "Cmax", "setting": "[1]; human, in vivo, po, 80 mg, Cmax", "value": "220 ± 100", "unit": "ng/mL"},
      {"measurement": "Tmax", "setting": "[1]; human, in vivo, po, 80 mg, Tmax", "value": "4 ± 2", "unit": "h"},
      {"measurement": "half-life", "setting": "[1]; human, in vivo, po, 80 mg, t1/2 (harmonic mean)", "value": "16 ± 1.8", "unit": "h"},
      {"measurement": "AUCt", "setting": "[1]; human, in vivo, po, 120 mg", "value": "2.25 ± 0.61", "unit": "µg·h/mL"},
      {"measurement": "AUC∞", "setting": "[1]; human, in vivo, po, 120 mg", "value": "4.31 ± 2.38^c μg•h/mL"},
      {"measurement": "Cmax", "setting": "[1]; human, in vivo, po, 120 mg", "value": "250 ± 140", "unit": "ng/mL"},
      {"measurement": "Tmax", "setting": "[1]; human, in vivo, po, 120 mg", "value": "4.1 ± 2.2", "unit": "h"},
      {"measurement": "AUC(0-t)", "setting": "[1]; human, in vivo, po, 120 mg", "value": "3600 ± 2500", "unit": "ng·h/mL"},
      {"measurement": "AUC(0-inf)", "setting": "[1]; human, in vivo, po, 120 mg", "value": "5400 ± 2620", "unit": "ng·h/mL"},
      {"measurement": "Cmax", "setting": "[1]; human, in vivo, po, 120 mg, Cmax", "value": "490 ± 330", "unit": "ng/mL"},
      {"measurement": "Tmax", "setting": "[1]; human, in vivo, po, 120 mg, Tmax", "value": "3.8 ± 2.2", "unit": "h"},
      {"measurement": "AUC∞", "setting": "[1]; human, in vivo, po, 140 mg", "value": "4.13 (4.96, 3.31)^a μg•h/mL"},
      {"measurement": "Cmax", "setting": "[1]; human, in vivo, po, 140 mg", "value": "330 ± 190", "unit": "ng/mL"},
      {"measurement": "Tmax", "setting": "[1]; human, in vivo, po, 140 mg", "value": "10.1 ± 12.3", "unit": "h"},
      {"measurement": "t1/2 (harmonic mean)", "setting": "[1]; human, in vivo, po, 140 mg", "value": "15.8 ± 23.6", "unit": "h"},
      {"measurement": "AUC(0-inf)", "setting": "[1]; human, in vivo, po, 140 mg", "value": "5400 ± 1800", "unit": "ng·h/mL"},
      {"measurement": "Cmax", "setting": "[1]; human, in vivo, po, 140 mg, Cmax", "value": "240 ± 130", "unit": "ng/mL"},
      {"measurement": "half-life", "setting": "[1]; human, in vivo, po, 140 mg, t1/2 (harmonic mean)", "value": 10.1, "unit": "h"},
      {"measurement": "Tmax", "setting": "[1]; human, in vivo, po, 180 mg", "value": 2.0, "unit": "h"},
      {"measurement": "t1/2 (harmonic mean)", "setting": "[1]; human, in vivo, po, 180 mg", "value": 11.6, "unit": "h"},
      {"measurement": "Tmax", "setting": "[1]; human, in vivo, po, 180 mg, Tmax", "value": "4 ± 2", "unit": "h"},
      {"measurement": "half-life", "setting": "[1]; human, in vivo, po, 180 mg, t1/2 (harmonic mean)", "value": "9.5 ± 2.7", "unit": "h"},
      {"measurement": "Tmax", "setting": "[1]; human, in vivo, po, Tmax", "value": "4.2 ± 1.8", "unit": "h"},
      {"measurement": "half-life", "setting": "[1]; human, in vivo, po, t1/2 (harmonic mean)", "value": "14 ± 4", "unit": "h"},
      {"measurement": "Absolute oral bioavailability (estimate)", "setting": "[2]", "value": "[…]"},
      {"measurement": "IC50", "setting": "FLT-3", "value": "[…]"}
    ]}
  ]
}
